Measured values published in patent publication US11980594B2, “Composition and method for treating a drug-resistant cancer” (NOVELWISE PHARMACEUTICAL CORPORATION, priority 2021, dated 2024).

Assays:
HT29 cells = assay: Annexin V/PI flow cytometric analysis of apoptosis, HT29; type: cell-based, human; details: BMX, 48 hrs
Protocol: (§1) Apoptosis induction in different doses of BMX (0-10 μM) in the presence or absence of TMZ (50 μM) was assayed by the detection of membrane externalization of phosphatidylserine with the with the CF®488A Annexin V and PI Apoptosis Kit (Fremont, Calif., USA) following the manufacturer's instructions. All samples were then immediately analyzed by flow cytometry.

HDAC8 [1] = biological target: T1, HDAC8 (Homo sapiens, UniProt Q9BY41); details: statement from literature [22]; cited from earlier work
T1 sequence (Q9BY41 1-377): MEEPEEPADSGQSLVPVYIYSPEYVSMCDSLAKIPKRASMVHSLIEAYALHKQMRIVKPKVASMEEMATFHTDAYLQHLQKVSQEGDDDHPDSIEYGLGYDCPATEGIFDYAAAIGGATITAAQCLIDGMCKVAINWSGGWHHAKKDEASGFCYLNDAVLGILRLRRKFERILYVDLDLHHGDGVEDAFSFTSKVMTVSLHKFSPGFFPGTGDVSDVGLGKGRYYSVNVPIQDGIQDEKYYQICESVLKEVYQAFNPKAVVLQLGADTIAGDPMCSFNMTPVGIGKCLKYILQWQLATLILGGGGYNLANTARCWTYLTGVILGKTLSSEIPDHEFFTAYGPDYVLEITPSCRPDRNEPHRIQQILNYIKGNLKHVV

c-Myc and cyclin D1 = assay: Western blot of c-Myc and cyclin D1 in GBM-R cells; type: cell-based, human; details: 5 or 10 μM BMX with or without 50 μM TMZ, 48 hrs, FIG. 3B
Protocol: (§2) The cells were collected and lysed in RIPA lysis buffer (EMD Millipore Billerica, Mass., USA, 10×RIPA buffer) containing a protease inhibitor. Protein concentration was determined using a protein assay kit (Bio-Rad Laboratories, Hercules, Calif., USA). The SDS loading buffer was mixed with the protein samples. Proteins (20 μg/lane) were separated using 8%-12% SDS-PAGE and transferred to a PVDF membrane, which was blocked with 5% bovine serum albumin at room temperature for 1 hr in tris-buffered saline (TBS)-Tween 20 (0.5%; TBS-T), incubated with primary antibodies overnight at […], and then incubated with horseradish peroxidase (HRP)-conjugated secondary antibodies at room temperature for 1 hr. After washing thoroughly with TBS-T, the HRP signals were detected with a chemical HRP substrate. Signal of each target protein was visualized by incubation with an enhanced chemiluminescent reagent and exposure to X-ray film.

RKO cells [2] = assay: Annexin V/PI flow cytometric analysis of apoptosis, RKO; type: cell-based, human; details: BMX, 48 hrs
Protocol: as §1

U87MG-R cells = assay: Flow cytometric analysis of the DNA cell cycle, U87MG-R; type: cell-based, human; details: 10 μM BMX alone, 48 hrs
Protocol: (§3) For the DNA cell cycle, following treatment with different doses of BMX (0-10 μM) in the presence or absence of TMZ (50 μM) for 48 hrs, the cells were harvested through trypsinization, washed twice with phosphate-buffered saline, and fixed in methanol. The cells were then washed again, subjected to RNase A at a final concentration of 0.05 mg/mL (Sigma-Aldrich; Merck Millipore, Darmstadt, Germany), and incubated with 10 μg/mL propidium iodide (PI; Sigma-Aldrich; Merck Millipore) at 4° C. for 15 min in the dark. Cell cycle analysis was conducted using a fluorescence-activated cell sorting (FACS) flow cytometer (Attune NxT flow cytometer, Thermo Fisher Scientific).

HDAC8 [3] = assay: HDAC8 mRNA (qRT-PCR) and protein (Western blot) expression in GBM and GBM-R cell lines; type: cell-based, human; details: four cell lines (U87MG, U87MG-R, A172, A172-R); BMX 0-10 μM; FIGS. 9A and 9B
Protocol: The ABI Prism® 7700 Sequence Detection System (Applied Biosystems, Foster City, Calif., USA) was used for quantitative analysis of mRNA expression. The cells (2×10^5) were seeded in 6-well plates, and total RNA was extracted using Tissue Total RNA Mini Kit (Geneaid, Taipei, Taiwan). A 10-ng sample of total RNA was transcribed into cDNA by using a High-Capacity cDNA Reverse Transcription Kit (Applied Biosystems). Gene expression was quantified using Fast SYBR Green Master Mix (Applied Biosystems) following the procedures provided by the manufacturer, with 18s as the inner reference. All procedures were performed according to the manufacturer's protocols. The thermocycling conditions were as follows: 50° C. for 2 min, 95° C. for 10 min, and 40 cycles of 95° C. for 15 s and 60° C. for […]. Each sample was analyzed in triplicate. The threshold cycle (Ct) values were calculated using the StepOnePlus (Applied Biosystems) software. The relative expression of each mRNA was calculated using the 2-(ΔCt) method. […]
The cells were collected and lysed in RIPA lysis buffer (EMD Millipore Billerica, Mass., USA, 10×RIPA buffer) containing a protease inhibitor. Protein concentration was determined using a protein assay kit (Bio-Rad Laboratories, Hercules, Calif., USA). […] After washing thoroughly with TBS-T, the HRP signals were detected with a chemical HRP substrate. […]

A172-R cells = assay: Flow cytometric analysis of the DNA cell cycle, A172-R; type: cell-based, human; details: 10 μM BMX alone, 48 hrs
Protocol: as §3

[4] = statement from literature [22]; cited from earlier work
HCT116 cells [5] = assay: Annexin V/PI flow cytometric analysis of apoptosis, HCT116; type: cell-based, human; details: BMX, 48 hrs
Protocol: as §1

β-catenin = assay: Western blot of β-catenin in GBM-R cells; type: cell-based, human; details: U87R and A172R cells; 10 μM BMX with or without 50 μM TMZ; 48 hrs; FIG. 3A
Protocol: as §2

HCT116 cells [6] = assay: Clonogenic (colony formation) assay, HCT116; type: cell-based; details: Homo sapiens, HCT-116, 336 h, 14 days, read-out: IC50 values of TMZ, clonogenic assay
Protocol: (§4) For the anchorage-dependent growth assay, 1000 cells were resuspended in the medium and seeded in 6-well plates. […] After 14 days, the media were removed and the cells were washed and fixed with 4% paraformaldehyde for 30 min, and stained with 0.1% crystal violet for 20 min at 25° C. The intensity of crystal violet was quantified by the absorbance of 570 nm after dissolving the stained cells with dimethyl sulfoxide (DMSO). The results are expressed as the average colony±SE from three independent experiments.

RKO cells [7] = assay: Clonogenic (colony formation) assay, RKO; type: cell-based; details: Homo sapiens, 336 h, 14 days, read-out: IC50 values of TMZ, clonogenic assay
Protocol: as §4

SMILES | early apoptotic cells (HT29 cells) | HDAC isoform selectivity (HDAC8 [1]) | levels of proliferative markers c-Myc and cyclin D1 (c-Myc and cyclin D1) | early apoptotic cells (RKO cells [2]) [%] | cells arrested in G0/G1 phase (U87MG-R cells) [%] | HDAC8 mRNA and protein expression (HDAC8 [3]) | cells arrested in G0/G1 phase (A172-R cells) [%] | toxicity [4] | early apoptotic cells (HCT116 cells [5]) [%] | protein levels of β-catenin (β-catenin) | IC50 (HCT116 cells [6]) [µM] | IC50 (RKO cells [7]) [µM]
COc1ccc(COc2c(/C=C/C(=O)NO)ccc(OC)c2CC=C(C)C)cc1 [BMX, (E)-2-(4-Methoxybenzyloxy)-3-prenyl-4-methoxy-N-hydroxycinamide] | up to 23.78% | isoform-selective HDAC8 inhibitor | could decrease their levels | ≤ 59.18 | 77.95 | inhibition of HDAC8 mRNA and protein expression | 70.34 | lowest toxicity | ≤ 49.34 | only slightly reduced these levels |  | 
Cn1nnc2c(C(N)=O)ncn2c1=O [TMZ, Temozolomide, reference compound] |  |  |  |  |  |  |  |  |  |  | 138 ± 22.7 | 244 ± 29.4
